Results from PubChem BioAssay (NCI).
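The compound was tested at five concentrations on cells cultured in 96-well plates, with a 48-hour exposure period. GI50 is the concentration that inhibits growth by half. Definition used: TGI = concentration required for complete inhibition of growth.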

Experiments:
Assay in all cases: NCI anticancer screen, dose series, 48 h
MALME-3M melanoma = test system: MALME-3M melanoma
HOP-62 NSCLC = test system: HOP-62 NSCLC
SF-295 CNS = test system: SF-295 CNS
SNB-19 CNS = test system: SNB-19 CNS
M14 melanoma = test system: M14 melanoma
NCI-H23 lung = test system: NCI-H23 lung
HCC-2998 colon = test system: HCC-2998 colon
UACC-62 melanoma = test system: UACC-62 melanoma
MOLT-4 leukemia = test system: MOLT-4 leukemia
OVCAR-3 ovarian = test system: OVCAR-3 ovarian
TK-10 renal = test system: TK-10 renal
MDA-MB-231 breast = test system: MDA-MB-231 breast
A498 renal = test system: A498 renal
MCF7 breast = test system: MCF7 breast
SK-MEL-28 melanoma = test system: SK-MEL-28 melanoma
K-562 leukemia = test system: K-562 leukemia
HL-60(TB) leukemia = test system: HL-60(TB) leukemia
RPMI-8226 leukemia = test system: RPMI-8226 leukemia
SK-MEL-5 melanoma = test system: SK-MEL-5 melanoma
KM12 colon = test system: KM12 colon
CCRF-CEM leukemia = test system: CCRF-CEM leukemia
SK-MEL-2 melanoma = test system: SK-MEL-2 melanoma
EKVX NSCLC = test system: EKVX NSCLC
A549 NSCLC = test system: A549 NSCLC
NCI-H226 lung = test system: NCI-H226 lung
NCI-H522 lung = test system: NCI-H522 lung
NCI-H460 lung = test system: NCI-H460 lung
SNB-75 CNS = test system: SNB-75 CNS
IGROV1 ovarian = test system: IGROV1 ovarian
HCT-116 colon = test system: HCT-116 colon
COLO 205 colon = test system: COLO 205 colon
SR leukemia = test system: SR leukemia
BT-549 breast = test system: BT-549 breast
NCI/ADR-RES ovarian = test system: NCI/ADR-RES ovarian
SN12C renal = test system: SN12C renal
OVCAR-8 ovarian = test system: OVCAR-8 ovarian
UO-31 renal = test system: UO-31 renal
HS 578T breast = test system: HS 578T breast
CAKI-1 renal = test system: CAKI-1 renal
LOX IMVI melanoma = test system: LOX IMVI melanoma
T-47D breast = test system: T-47D breast
SF-268 CNS = test system: SF-268 CNS
PC-3 prostate = test system: PC-3 prostate
DU-145 prostate = test system: DU-145 prostate
U251 CNS = test system: U251 CNS
SF-539 CNS = test system: SF-539 CNS
HT29 colon = test system: HT29 colon
SK-OV-3 ovarian = test system: SK-OV-3 ovarian
OVCAR-4 ovarian = test system: OVCAR-4 ovarian
HCT-15 colon = test system: HCT-15 colon
UACC-257 melanoma = test system: UACC-257 melanoma
786-0 renal = test system: 786-0 renal
MDA-MB-435 = test system: MDA-MB-435
RXF 393 renal = test system: RXF 393 renal
ACHN renal = test system: ACHN renal
OVCAR-5 ovarian = test system: OVCAR-5 ovarian
HOP-92 NSCLC = test system: HOP-92 NSCLC

SMILES: Cc1ccc2c(C)c3c(ccc4ccccc43)c[n+]2c1
- GI50 (MALME-3M melanoma): 1.96 µM
- TGI (MALME-3M melanoma): 5.69 µM
- GI50 (HOP-62 NSCLC): 5.93 µM
- TGI (HOP-62 NSCLC): 24.7 µM
- GI50 (SF-295 CNS): 3.04 µM
- TGI (SF-295 CNS): 31.7 µM
- GI50 (SNB-19 CNS): 2.84 µM
- TGI (SNB-19 CNS): 24.7 µM
- GI50 (M14 melanoma): 14.1 µM
- TGI (M14 melanoma): 31.7 µM
- GI50 (NCI-H23 lung): 3.96 µM
- TGI (NCI-H23 lung): 38.6 µM
- GI50 (HCC-2998 colon): 8.06 µM
- TGI (HCC-2998 colon): 25.5 µM
- GI50 (UACC-62 melanoma): 8.88 µM
- TGI (UACC-62 melanoma): 22 µM
- GI50 (MOLT-4 leukemia): 5.54 µM
- TGI (MOLT-4 leukemia): 28.4 µM
- GI50 (OVCAR-3 ovarian): 2.64 µM
- TGI (OVCAR-3 ovarian): 16.8 µM
- GI50 (TK-10 renal): 68.3 µM
- TGI (TK-10 renal): > 100 µM
- GI50 (MDA-MB-231 breast): 13.5 µM
- TGI (MDA-MB-231 breast): 46.2 µM
- GI50 (A498 renal): 5.85 µM
- TGI (A498 renal): > 100 µM
- GI50 (MCF7 breast): 0.629 µM
- TGI (MCF7 breast): 25.9 µM
- GI50 (SK-MEL-28 melanoma): 4.68 µM
- TGI (SK-MEL-28 melanoma): 18.4 µM
- GI50 (K-562 leukemia): 9.3 µM
- TGI (K-562 leukemia): 47.3 µM
- GI50 (HL-60(TB) leukemia): 21.5 µM
- TGI (HL-60(TB) leukemia): 55.8 µM
- GI50 (RPMI-8226 leukemia): 4.92 µM
- TGI (RPMI-8226 leukemia): 41.2 µM
- GI50 (SK-MEL-5 melanoma): 2.25 µM
- TGI (SK-MEL-5 melanoma): 10.4 µM
- GI50 (KM12 colon): 1.56 µM
- TGI (KM12 colon): 14.8 µM
- GI50 (CCRF-CEM leukemia): 8.89 µM
- TGI (CCRF-CEM leukemia): 38.9 µM
- GI50 (SK-MEL-2 melanoma): 15.4 µM
- TGI (SK-MEL-2 melanoma): 33.6 µM
- GI50 (EKVX NSCLC): 0.775 µM
- TGI (EKVX NSCLC): > 100 µM
- GI50 (A549 NSCLC): 3.85 µM
- TGI (A549 NSCLC): > 100 µM
- GI50 (NCI-H226 lung): 21.1 µM
- TGI (NCI-H226 lung): > 100 µM
- GI50 (NCI-H522 lung): 15.5 µM
- TGI (NCI-H522 lung): 38.8 µM
- GI50 (NCI-H460 lung): 5.1 µM
- TGI (NCI-H460 lung): 25.1 µM
- GI50 (SNB-75 CNS): 11.9 µM
- TGI (SNB-75 CNS): 40.3 µM
- GI50 (IGROV1 ovarian): 9.28 µM
- TGI (IGROV1 ovarian): 80.1 µM
- GI50 (HCT-116 colon): 17.3 µM
- TGI (HCT-116 colon): 78.7 µM
- GI50 (COLO 205 colon): 11 µM
- TGI (COLO 205 colon): 24.7 µM
- GI50 (SR leukemia): 3.75 µM
- TGI (SR leukemia): 22.9 µM
- GI50 (BT-549 breast): 3.57 µM
- TGI (BT-549 breast): 16.6 µM
- GI50 (NCI/ADR-RES ovarian): > 100 µM
- TGI (NCI/ADR-RES ovarian): > 100 µM
- GI50 (SN12C renal): 2.18 µM
- TGI (SN12C renal): 18.2 µM
- GI50 (OVCAR-8 ovarian): 6.35 µM
- TGI (OVCAR-8 ovarian): 25.4 µM
- GI50 (UO-31 renal): 27.8 µM
- TGI (UO-31 renal): > 100 µM
- GI50 (HS 578T breast): 4.37 µM
- TGI (HS 578T breast): 22.3 µM
- GI50 (CAKI-1 renal): 40.5 µM
- TGI (CAKI-1 renal): > 100 µM
- GI50 (LOX IMVI melanoma): 17.3 µM
- TGI (LOX IMVI melanoma): 53.6 µM
- GI50 (T-47D breast): 1.73 µM
- TGI (T-47D breast): 7.18 µM
- GI50 (SF-268 CNS): 2.87 µM
- TGI (SF-268 CNS): 15.9 µM
- GI50 (PC-3 prostate): 7.15 µM
- TGI (PC-3 prostate): 41 µM
- GI50 (DU-145 prostate): 14.7 µM
- TGI (DU-145 prostate): 40.6 µM
- GI50 (U251 CNS): 2.8 µM
- TGI (U251 CNS): 18.6 µM
- GI50 (SF-539 CNS): 13.8 µM
- TGI (SF-539 CNS): 28.2 µM
- GI50 (HT29 colon): 33.5 µM
- TGI (HT29 colon): > 100 µM
- GI50 (SK-OV-3 ovarian): 18.6 µM
- TGI (SK-OV-3 ovarian): 57.2 µM
- GI50 (OVCAR-4 ovarian): 5.21 µM
- TGI (OVCAR-4 ovarian): 41.7 µM
- GI50 (HCT-15 colon): 77.7 µM
- TGI (HCT-15 colon): > 100 µM
- GI50 (UACC-257 melanoma): 10.4 µM
- TGI (UACC-257 melanoma): 77.1 µM
- GI50 (786-0 renal): 20.1 µM
- TGI (786-0 renal): > 100 µM
- GI50 (MDA-MB-435): 9.55 µM
- TGI (MDA-MB-435): 24.4 µM
- GI50 (RXF 393 renal): 41.5 µM
- TGI (RXF 393 renal): > 100 µM
- GI50 (ACHN renal): 29.6 µM
- TGI (ACHN renal): > 100 µM
- GI50 (OVCAR-5 ovarian): 39.5 µM
- TGI (OVCAR-5 ovarian): > 100 µM
- GI50 (HOP-92 NSCLC): 6.28 µM
- TGI (HOP-92 NSCLC): 35.2 µM
